Legend:
[1] = Octanol-water partition coefficient, log P of the compound; type: physicochemical
L1210 = assay: Antitumor activity against mouse L1210 cells allografted in ip dosed BDF1 mouse assessed as increase of life span of host measured up to 45 days; type: functional; details: 1080 h
Mus musculus = assay: Toxicity in ip dosed BDF1 mouse; type: organism-based; details: in vivo
[2] = Therapeutic index, ratio of LD10 for BDF1 mouse to ED50 for mouse L1210 cells allografted in ip dosed BDF1 mouse; type: organism-based; details: in vivo, read-out: TI
[3] = Octanol-water partition coefficient, log P of the compound at pH 7.4; type: physicochemical

Compound	logP ([1]; read-out: logP)	ED50 (L1210)	LD10 (Mus musculus)	selectivity ratio [2]	logD [3]	logP [1]
CCCCCC(C)NC(=O)N(CCCl)N=O (stereo not given)	3.8	27 mg/kg	57 mg/kg	–	–	–
O=NN(CCCl)C(=O)NC(C(=O)O)C1CCCCC1 (stereo not given)	–	50 mg/kg	73 mg/kg	0.63	0	–
O=NN(CCCl)C(=O)N[C@H]1CC[C@@H](C(=O)O)CC1	–	16 mg/kg	26 mg/kg	0.62	-1.1	–
C[C@H]1CC[C@H](NC(=O)N(CCCl)N=O)CC1	3.3	18 mg/kg	42 mg/kg	0.43	–	–
O=NN(CCCl)C(=O)N[C@H]1CC[C@@H](O)CC1	1.1	22 mg/kg	46 mg/kg	0.48	–	–
O=NN(CCCl)C(=O)N[C@H]1CC[C@H](C(=O)O)CC1	–	17 mg/kg	30 mg/kg	0.57	-1.1	–
O=NN(CCCl)C(=O)N[C@H]1CC[C@@H](CC(=O)O)CC1	–	27 mg/kg	51 mg/kg	0.53	-0.6	–
O=NN(CCCl)C(=O)N[C@H]1CC[C@H](CC(=O)O)CC1	–	12 mg/kg	40 mg/kg	0.3	-0.6	–
COC(=O)[C@H]1CC[C@@H](NC(=O)N(CCCl)N=O)CC1	2.6	15 mg/kg	54 mg/kg	0.28	–	–
CO[C@H]1CC[C@@H](NC(=O)N(CCCl)N=O)CC1	2.4	20 mg/kg	38 mg/kg	0.53	–	–
C[C@H]1S(=O)(=O)C[C@H](NC(=O)N(CCCl)N=O)CS1(=O)=O	-0.4	19 mg/kg	51 mg/kg	0.37	–	–
O=NN(CCF)C(=O)N[C@H]1CC[C@@H](C(=O)O)CC1	–	30 mg/kg	29 mg/kg	–	-1.7	–
CO[C@H]1CC[C@H](NC(=O)N(CCCl)N=O)CC1	2.4	23 mg/kg	44 mg/kg	0.52	–	–
COC(=O)[C@H]1CC[C@H](NC(=O)N(CCCl)N=O)CC1	2.6	14 mg/kg	26 mg/kg	0.54	–	–
O=NN(CCCl)C(=O)N[C@H]1CC[C@H](O)CC1	1	14 mg/kg	42 mg/kg	0.4	–	–
O=NN(CCF)C(=O)N[C@H]1CC[C@H](C(=O)O)CC1	–	30 mg/kg	56 mg/kg	–	-1.7	–
C[C@H]1S(=O)(=O)C[C@@H](NC(=O)N(CCCl)N=O)CS1(=O)=O	-0.4	18 mg/kg	36 mg/kg	0.5	–	–
CC(=O)OC[C@H]1CC[C@H](NC(=O)N(CCF)N=O)CC1	2.5	45 mg/kg	57 mg/kg	0.79	–	–
CC(=O)O[C@H]1CC[C@H](NC(=O)N(CCCl)N=O)CC1	2.6	18 mg/kg	45 mg/kg	0.4	–	–

Compound	logP ([1]; read-out: logP)	ED50 (L1210)	LD10 (Mus musculus)	selectivity ratio [2]	logD [3]	logP [1]
CC(=O)O[C@H]1CC[C@H](NC(=O)N(CCF)N=O)CC1	2	18 mg/kg	36 mg/kg	0.5	–	–
C[C@H]1SC[C@@H](NC(=O)N(CCCl)N=O)CS1	2.6	16 mg/kg	31 mg/kg	0.53	–	–
C[C@H]1CC[C@H](NC(=O)N(CCF)N=O)CC1	2.7	25 mg/kg	44 mg/kg	0.57	–	–
O=NN(CCCl)C(=O)N[C@H]1CC[C@@H](NC(=O)N(CCCl)N=O)CC1	2.7	40 mg/kg	84 mg/kg	0.48	–	–
O=NN(CCCl)C(=O)N[C@H]1CC[C@H](NC(=O)N(CCCl)N=O)CC1	2.7	71 mg/kg	270 mg/kg	0.26	–	–
O=NN(CCCl)C(=O)N[C@H]1CC[C@H](C[C@H]2CC[C@H](NC(=O)N(CCCl)N=O)CC2)CC1	3.1	96 mg/kg	250 mg/kg	0.38	–	–
CCOC(=O)[C@H]1CC[C@H](NC(=O)N(CCCl)N=O)CC1	3.1	17 mg/kg	33 mg/kg	0.52	–	–
O=COC[C@H]1CC[C@H](NC(=O)N(CCCl)N=O)CC1	2.6	10 mg/kg	22 mg/kg	0.45	–	–
CC(=O)OC[C@H]1CC[C@H](NC(=O)N(CCCl)N=O)CC1	3.1	14 mg/kg	28 mg/kg	0.5	–	–
O=NN(CCCl)C(=O)N[C@H]1CC[C@H](CCl)CC1	3.7	43 mg/kg	62 mg/kg	0.69	–	–
O=NN(CCCl)C(=O)N[C@H]1CCCC[C@@H]1Cl (relative stereo)	2.7	36 mg/kg	57 mg/kg	0.63	–	–
C[C@H]1CCC[C@H](NC(=O)N(CCCl)N=O)C1 (relative stereo)	–	53 mg/kg	110 mg/kg	0.48	–	3.3
O=NN(CCCl)C(=O)N[C@H]1CCCC[C@H]1Cl (relative stereo)	2.7	54 mg/kg	96 mg/kg	0.56	–	–
C[C@@H]1CCC[C@H](NC(=O)N(CCCl)N=O)C1 (relative stereo)	3.3	45 mg/kg	120 mg/kg	0.38	–	–
O=NN(CCCl)C(=O)N[C@H]1CCC[C@@H](C(=O)O)C1 (relative stereo)	–	21 mg/kg	34 mg/kg	0.62	-1.1	–
CCOC(=O)[C@@H]1CCC[C@H](NC(=O)N(CCCl)N=O)C1 (relative stereo)	3.1	28 mg/kg	50 mg/kg	0.56	–	–
O=NN(CCCl)C(=O)NCCCl [CARMUSTINE]	1.5	20 mg/kg	41 mg/kg	0.49	–	–
O=NN(CCCl)C(=O)NC1CCCCC1 [LOMUSTINE]	2.8	37 mg/kg	48 mg/kg	0.77	–	–
